Assay results as given in patent US20240307497A1, “ADIPONECTIN ALONE OR IN COMBINATION WITH EXTRACORPOREAL PHOTOPHERESIS (ECP) FOR IMMUNE RELATED ADVERSE EVENTS OF IMMUNE CHECKPOINT INHIBITORS” (Mallinckrodt Pharmaceuticals Ireland Limited, priority 2022, published 2024).
“Also recorded” adds a separate entry of the source. Read-outs that look alike come from different tables or passages of the source.

Tests used:
[1] = system: DSS/anti-PD1-induced colitis; assay: DSS/anti-PD1-induced colitis model; assay type: in vivo, mice; settings: for ICI-induced colonic inflammation, combination with ECP: ECP plus agent vs ECP plus vehicle, FIGS. 4i-p; for severity of ICI-induced colitis (bodyweight, colon length, neutrophil and lymphocyte infiltration): monotherapy vs vehicle, daily days 3-7, FIGS. 4a-h
Experimental: For modeling ECP transplantation in vivo, splenocytes of donor mice were used. Donor animals were treated identically to the respective recipient groups. Spleens were harvested, meshed and erythrocytes were lysed. Splenocytes were resuspended to 3-5×10^6 cells/mL in RPMI, supplemented with 10% FCS and 1% P/S, and treated with 200 ng/mL 8-methoxypsoralen (8-MOP; Uvadex©, Therakos) at 37° C. and 5% CO2 for 30 min. Following incubation, the cells were exposed to UVA light (2 J/cm2) in a calibrated BS-02 irradiation chamber, operated in dose-controlled mode (Opsytec Dr. Gröbel). ECP-treated splenocytes were resuspended in PBS and […] were injected intravenously into recipient mice. Where indicated, PBMCs were treated with ECP comparably to splenocytes and 107 PBMCs were injected intravenously into recipient mice. PBMCs from mouse EDTA-blood were isolated using Ficoll-Paque PREMIUM 1.084 (Cytiva). For ECP-treatment of epithelial cells, 6×10^6 MODE-K cells were seeded onto 10 cm dishes one day before ECP-treatment. The next day, cells were treated with 8-methoxypsoralen and UVA light in a calibrated BS-02 irradiation chamber. Cells were washed with PBS and 2×10^6 ECP-treated MODE-K cells were injected intravenously into recipient mice.
(§1) For the induction of acute colitis, mice received 3% Dextran Sodium Sulfate (DSS colitis grade, 36-50 kDa; MP Biomedicals) in drinking water from day 0 to day 3, followed by normal drinking water. Mice were injected i.p. with 0.2 mg immune checkpoint inhibitor (ICI) or the respective isotype controls on days 0, 3 and 6 of the experiment. Recipients were transplanted i.v. with 107 ECP-treated donor splenocytes on days 3 and 6. In some experiments, steroid, adiponectin or AdipoRon were applied daily from days 3-7. Arginase-1 inhibitor was applied twice per day from days 4-7. STAT6 or PPARγ inhibitors were applied from day 4-7. Mice were injected with Clodrosomes on days 1, 3, 5 and 7. If not indicated differently, mice were sacrificed in day 8 by retroorbital bleeding to harvest serum and organs which were harvested for histopathological scoring and gene expression analysis.
ICI treatment consisted of either 0.2 mg anti-PD1 (mouse, clone RMP1-14; Ichorbio) or 0.2 mg anti-CTLA4 (mouse, clone 9D9; Ichorbio) per injection intraperitoneally. Controls were Rat IgG2a Isotype Control (clone 1-1, Ichorbio) and Mouse IgG2b Isotype Control (clone MPC-11, Ichorbio), respectively. […]
(§2) Colon, liver, skin and lung were harvested, formalin-fixed and paraffin embedded. Sections were stained with H&E and scored by an experienced pathologist, based on histopathological characterization of human irAEs, including lymphocyte and neutrophil infiltration, crypt abscesses, and apoptotic cells on a scale from 0 (absent) to 2 (massive). […]

[2] = system: DSS/anti-CTLA4-induced colitis; assay: DSS/anti-CTLA4-induced colitis model; assay type: in vivo, mice; settings: AdipoRon vs vehicle; FIGS. S10a-S10d
Experimental: as §1, with “If not indicated differently, mice were sacrificed in day 8 by retroorbital bleeding to harvest serum and organs which were harvested for histopathological scoring and gene expression analysis.” left out
as §2
For quantification of adiponectin concentrations in murine serum specimen, blood was harvested by retroorbital bleeding and serum was isolated by centrifugation. Adiponectin concentrations were measured using Adiponectin Mouse ELISA Kit (ThermoFisher) at 20,000-fold dilution.

[3] = system: F4/80^+ macrophages (BMDMs); assay: Arg1 in BMDMs exposed to recombinant adiponectin or AdipoRon; assay type: cell-based, mouse; settings: increasing concentrations, 48 h, vs vehicle
Experimental: BMDMs were generated from bone marrow after erythrocyte lysis. Cells were cultured in RPMI supplemented with 10% FCS, 1% P/S and 20 ng/mL rmM-CSF (Peprotech). Culture medium was replaced on days 5 and 6. Cells were used on day 7 with a purity >95%, confirmed by surface CD11b and F4/80 expression. BMDMs (M0) were polarized for 16 h into M1 with 50 ng/mL rmIFNγ (Peprotech) and 20 ng/mL LPS (Sigma), or into M2 with 20 ng/mL rmIL-4 (Peprotech). If indicated, BMDMs were treated with increasing concentrations of recombinant adiponectin/Acrp30 (GenScript) or AdipoRon (MedChemExpress) for 48 h.
(§3) Spleens were isolated, meshed and erythrocytes were lysed. Single cell suspensions of tissues were prepared as described. Viability was analyzed by either Zombie NIR fixable dye (BioLegend) or LIVE/DEAD Fixable Aqua (Invitrogen) staining. Fc receptors were blocked with anti-mouse CD16/CD32 (BioLegend) for 10 min at 4° C., followed by surface staining with fluorochrome-conjugated antibodies for 30 min at 4° C. […] Antigen-specific CD8 T-cells were analyzed after H-2Kb/OVA^257-264 dextramer staining (Immudex). […] All data were acquired on a BD LSR Fortessa (BD Biosciences) and analyzed with FlowJo v10 (TreeStar). […] Data was acquired with a Canto II flow cytometer (BD Biosciences) and analyzed using FACSDiva Software V6 (BD Biosciences).

ICI-hepatitis = settings: cited from earlier work; for Response / Steroid reduction: case reports
ICI-colitis = settings: cited from earlier work; for ORR (clinical remission) / response rate: retrospective observational cohort, best response at any time point
pan T-cells = assay: T-cell activation with anti-CD3/CD28 beads in the presence of adiponectin; assay type: cell-based, mouse; settings: 72 h, vs vehicle
Experimental: (§4) Splenic T-cells were isolated from C57BL/6 donors using Pan T-cell isolation kit II (Miltenyi) and activated using anti-CD3/CD28 beads (ThermoScientific) in the presence of 30 U/mL rmIL2 (Peprotech). T-cells were treated with 9 μg/mL recombinant murine adiponectin (GenScript) or vehicle for 72 h. C57BL/6 recipients received 1% DSS (MP Biomedicals) in drinking water from day 0 to day 3, followed by normal drinking water to induce mild colitis. Mice were injected i.p. with 0.2 mg anti-PD1 on day 0, day 3 and day 6 of the experiment. On day 4, activation beads were removed, T-cells were washed and 5×106 T-cells were intravenously injected into colitis animals. Colitis tissue was harvested on day 8. T-cells were stained for CD25 surface expression to determine activation.
as §3, with “staining.” for “staining. Fc receptors were blocked with anti-mouse CD16/CD32 (BioLegend) for 10 min at 4° C., followed by surface staining with fluorochrome-conjugated antibodies for 30 min at 4° C.”

[4] = system: DSS/anti-PD1-induced colitis; assay: Adoptive transfer of adiponectin-treated T-cells into colitis mice; assay type: in vivo; settings: adiponectin-treated vs vehicle-treated T-cells
Experimental: as §4
Colon, liver, skin and lung were harvested, formalin-fixed and paraffin embedded. Sections were stained with H&E and scored by an experienced pathologist, based on histopathological characterization of human irAEs, including lymphocyte and neutrophil infiltration, crypt abscesses, and apoptotic cells on a scale from 0 (absent) to 2 (massive). Scoring was done blinded to the experimental group.

[5] = retrospective analysis of 8 patients
[6] = retrospective analysis of 13 patients

With `O=C(COc1ccc(C(=O)c2ccccc2)cc1)NC1CCN(Cc2ccccc2)CC1` [AdipoRon] the “ICI-induced colonic inflammation, combination with ECP” value [1] was “synergized with ECP to reduce ICI-induced colonic inflammation”, the “severity of ICI-induced colitis (bodyweight, colon length, neutrophil and lymphocyte infiltration)” value [1] was “effective in anti-PD1-mediated colitis” and the “DSS/anti-CTLA4-induced colitis / intestinal inflammation” value [2] was “reduced anti-CTLA-4-induced colitis; also recorded: also in DSS/anti-CTLA4-induced intestinal inflammation”. For the same molecule, the “Arg1 (MFI) in BMDMs” value [3] was “upregulation of immunosuppressive Arg1”.

In the case of `COc1c(C)c2c(c(O)c1C/C=C(\C)CCC(=O)OCCN1CCOCC1)C(=O)OC2` [Mycophenolate mofetil], the Response (ICI-hepatitis) is listed as “Improved liver injury within 13; also recorded: Discharge of MMF after 68 days; also recorded: Liver function normalized within 3”, the Steroid reduction (ICI-hepatitis) is listed as “Tapered from 60 to 10 mg/d; also recorded: Tapered from 500 to 10 mg/d; also recorded: Discontinuation after 1 year” and the ORR (ICI-hepatitis; retrospective, 8 patients, liver function tests to grade 1 or less) is listed as 50%. For the same molecule, the Adverse events (ICI-hepatitis; retrospective, 8 patients) was 25%.

In the case of `C=CC[C@@H]1/C=C(\C)C[C@H](C)C[C@H](OC)[C@H]2O[C@@](O)(C(=O)C(=O)N3CCCC[C@H]3C(=O)O[C@H](/C(C)=C/[C@@H]3CC[C@@H](O)[C@H](OC)C3)[C@H](C)[C@@H](O)CC1=O)[C@H](C)C[C@@H]2OC` [Tacrolimus], the Response (ICI-hepatitis) is listed as “Decreasing ALT levels within 2-5” and the Steroid reduction (ICI-hepatitis) is listed as “Cessation at 12 months; also recorded: Cessation of prednisolone over 6”.

For Infliximab: TNF antagonist, the Response (ICI-hepatitis) is listed as “Partial response, reduction of ALT”, the Steroid reduction (ICI-hepatitis) is listed as “Tapering to 30%, off steroid at 14” and the CR rate (ICI-colitis; [5]) is listed as 38%. For the same molecule, the ORR (ICI-colitis; [5]) was 50%, the CR (ICI-colitis; [6]) was 31% and the ORR (ICI-colitis; [6]) was 45%. For the same molecule, the “ORR (clinical remission) / response rate” value (ICI-colitis) was 88%.

For “Tocilizumab: interleukin-6 blockade by tocilizumab”, the “Adverse events, any grade” value (ICI-colitis; human, in vivo) is given as 80%, the “Adverse events, grade 3-4” value (ICI-colitis; human, in vivo) is given as 25% and the “patients with reduction in symptoms” value (ICI-colitis; prospective trial, best response during 8 weeks) is given as 8 of 10. The ORR (ICI-colitis; prospective, 10 patients, colitis improvement (≥1 grade reduction) within 8 weeks) was 80% and the CR (ICI-colitis; prospective, 10 patients) was 0%.

For “Vedolizumab: treatment for ICI-colitis in cited studies”, the endoscopic remission rate (ICI-colitis; retrospective case series, 28 patients refractory to steroids and/or infliximab) is given as 29%, the “ORR (clinical remission) / response rate” value (ICI-colitis) is given as 89% and the “ORR (clinical remission) / response rate” value (ICI-colitis; listed as vedolizumab) is given as 89%.

B1: adiponectin: recombinant murine adiponectin (GenScript); protein hormone and adipokine (protein, UniProt Q60994 18-247, looked up)
Adiponectin: EDDVTTTEELAPALVPPPKGTCAGWMAGIPGHPGHNGTPGRDGRDGTPGEKGEKGDAGLLGPKGETGDVGMTGAEGPRGFPGTPGRKGEPGEAAYVYRSAFSVGLETRVTVPNVPIRFTKIFYNQQNHYDGSTGKFYCNIPGLYYFSYHITVYMKDVKVSLFKKDKAVLFTYDQYQEKNVDQASGSVLLHLEVGDQVWLQVYGDGDHNGLYADNVNDSTFTGFLLYHDTN
With B1 the “ICI-induced colonic inflammation, combination with ECP” value [1] was “synergized with ECP to reduce ICI-induced colonic inflammation”, the “severity of ICI-induced colitis (bodyweight, colon length, neutrophil and lymphocyte infiltration)” value [1] was “reduce the severity of colitis” and the “Arg1 (MFI) in BMDMs” value [3] was “upregulation of immunosuppressive Arg1”. The “CD25 expression on CD4^+ and CD8^+ T-cells” value (pan T-cells; 9 μg/mL) was “reduced the expression of CD25”, the “FoxP3 expression and CD4^+/CD8^+ T-cell frequencies” value (pan T-cells) was “no effect on FoxP3 expression and CD4^+/CD8^+ T-cell frequencies” and the “colitis severity in recipients of treated T-cells” value [4] was “Colitis severity was lower”.
